Data on 12 compounds can be found in article PMC4550478, “Metronidazole-triazole conjugates: Activity against Clostridium difficile and parasites” (European Journal of Medicinal Chemistry, 2015).

SMILES strings stand for the structures. In brackets after ≈: the same amount, converted by molar mass. A value given as a limit tells only on which side of the number the result lay.

Assay [1] deals with H. pylori 26695. Briefly: MIC agar dilution, H. pylori 26695. The format is cell-based. As to conditions: Helicobacter pylori, MtzS, microaerobic. The procedure: (§1) All compounds were tested for activity against a set of anaerobic C. difficile bacteria (630 ATCC BAA-1382, NAP1/027 M7404, NAP1/027 ATCC BAA-1803, VPI10463 ATCC 43255, CD26A54_S and CD26A54_R) and representative ESKAPE pathogens S. aureus (MRSA ATCC 43300), E. coli (ATCC 25922), K. pneumoniae (ATCC 700603), A. baumannii (ATCC 19606) and P. aeruginosa (ATCC 27853) using a standard broth microdilution assay. Selected compounds were tested for activity against H. pylori strains (26695, and clinical isolates MtzS 13/25, MtzR 98/285 and MtzR 13/61) using agar plate dilution, and for antimicrobial activity against […] Gram-positive bacterial strains: Enterococcus faecalis (VanA clinical isolate), Enterococcus faecium (MDR VanA ATCC 51559), Streptococcus pneumoniae (MDR ATCC 700677), S. aureus (MRSA ATCC 43300, MRSA clinical isolate, MRSA/DRSA clinical isolate, GISA NARSA NRS 1, GISA NARSA NRS 17, VRSA NARSA VRS1, VRSA NARSA VRS4 and VRSA NARSA VRS10) using broth microdilution. C. difficile strains were grown at 37 °C in a COY anaerobic chamber (5% H2, 10% CO2, 85% N2). H. pylori strains were grown at 37 °C under a microaerobic atmosphere (5% O2, 10% CO2). All facultative anaerobic bacteria were grown at 37 °C with normal atmospheric oxygen levels. All experiments were performed in duplicate with metronidazole, vancomycin, linezolid or colistin as positive controls for relevant strains (see Table 1). Positive growth control of bacteria and DMSO as well as a negative control of only media were included for every plate. Full assay details are provided in the supplementary information.
(§2) Helicobacter pylori strains, with a range of resistance levels to metronidazole (256 µg/ml, 64 µg/ml, 24 µg/ml, 2 µg/ml, and 0.04 µg/ml), were selected and obtained from Helicobacter Research Laboratory, University of Western Australia. The resistance strength to metronidazole was recorded according to eTest (bioMérieux). H. pylori strain 26695 was used as the control. H. pylori was maintained on the non-selective Columbia blood agar plates (CBA) (Columbia agar base Oxoid) with 5% horse blood and incubated at 37 °C and 10% CO2 for 48 hrs. […] Each of the H. pylori strains were harvested, OD600 calibrated to 0.3, and spotted in triplicate on CBA pre-mixed with the compound. The lowest concentration of antibiotic showing no growth was read as the MIC. The experiment was performed in duplicate.
A general note: In agar dilution, organisms are placed on agar that contains the substance at set levels.

For assay [2], the system named is H. pylori clinical isolate 13/25. The assay can be described thus: MIC agar dilution, H. pylori 13/25. The format is cell-based. Conditions: Helicobacter pylori, MtzS clinical isolate. The procedure: as §1, §2
Assay [3] deals with H. pylori clinical isolate 98/285. The assay can be described thus: MIC agar dilution, H. pylori 98/285. The format is cell-based. Conditions: Helicobacter pylori, MtzR clinical isolate. The procedure:
as §1, §2

The test system of assay [4] is H. pylori clinical isolate 13/61. The assay can be described thus: MIC agar dilution, H. pylori 13/61. Conditions: Helicobacter pylori, MtzR clinical isolate. The format is cell-based. The procedure:
as §1, §2

A short description of assay [5]: MIC broth microdilution, drug resistant Gram-positive panel. The format is cell-based. As to conditions: all strains of the panel; read-out: MIC against panel of drug resistant Gram-positive strains. The procedure:
as §1
MICs were determined by a two-fold serial broth micro dilution according to the recommendation of CLSI standards with an inoculum of 5 × 10^5 CFU/mL^4 The compounds along with standard antibiotics were serially diluted twofold across the wells of 96-well non-binding surface plates (NBS, Corning). Standards ranged from 64 to 0.03 μg/mL, and the compounds from 128 to 0.06 μg/mL with final volumes of 50 μL per well. Gram-positive and Gram-negative bacteria were cultured in Mueller Hinton broth (MHB) (Bacto laboratories, Cat. no. 211443) at 37 °C overnight. A sample of each culture was then diluted 40-fold in fresh MHB broth and incubated at 37 °C for 2-3 h. The resultant mid-log phase cultures were diluted to the final concentration of 5 × 10^5 CFU/mL, then 50 μL was added to each well of the compound containing 96-well plates. All the plates were covered and incubated at 37 °C for 24 h.

Assay [6] has as its system G. lamblia BRIS/83/HEPU/106 (106). Also on record: method as in earlier work. Conditions: MtzS, crude Mtz-triazoles (>85% purity), ref 15 (Miyamoto et al.); read-out: EC50 G. lamblia 106, Lit.; cited from earlier work.

Usually MIC stands for the lowest concentration found to suppress growth. In general, EC50 refers to the concentration giving half of the maximal effect. For the compound `Cc1ncc([N+](=O)[O-])n1CCO` [Compound 1, metronidazole], the minimum inhibitory concentration (MIC) in assay [1] was 8 µg/mL (≈ 46.7 µM); in assay [2], 4 to 8 µg/mL (≈ 23.4 to 46.7 µM); in assay [3] it was 64 µg/mL (≈ 374 µM); in assay [4] it was 32 to 64 µg/mL (≈ 187 to 374 µM); in assay [5], above 64 µg/mL. The EC50 in assay [6] was 3600 nM.
Turning to `Cc1ncc([N+](=O)[O-])n1CCn1cc(-c2ccc(Cl)c(Cl)c2)nn1` [Compound 4d, 1-(2-(2-methyl-5-nitro-1H-imidazol-1-yl)ethyl)-4-(3,4-dichlorophenyl)-1H-1,2,3-triazole], the EC50 in assay [6] is 1400 nM.
On to `Cc1ncc([N+](=O)[O-])n1CCn1cc(-c2ccsc2)nn1` [Compound 4n, 1-(2-(2-methyl-5-nitro-1H-imidazol-1-yl)ethyl)-4-(thiophen-3-yl)-1H-1,2,3-triazole], for which the concentration giving a half-maximal response (EC50) in assay [6] is 340 nM.
Turning to `Cc1ccc(-c2cn(CCn3c([N+](=O)[O-])cnc3C)nn2)cc1` [Compound 4e, 1-(2-(2-methyl-5-nitro-1H-imidazol-1-yl)ethyl)-4-(p-tolyl)-1H-1,2,3-triazole], the 50% effective concentration (EC50) in assay [6] was 2100 nM.
Consider `COC(=O)c1cn(CCn2c([N+](=O)[O-])cnc2C)nn1` [Compound 4f, 1-(2-(2-methyl-5-nitro-1H-imidazol-1-yl)ethyl)-4-(methoxycarbonyl)-1H-1,2,3-triazole], for which the minimal inhibitory concentration (MIC) in assay [1] and in assay [2] was 32 to 64 µg/mL (≈ 114 to 228 µM) in each case.
As to `Cc1ncc([N+](=O)[O-])n1CCn1cc(-c2ccccc2)nn1` [Compound 4a, 1-(2-(2-methyl-5-nitro-1H-imidazol-1-yl)ethyl)-4-phenyl-1H-1,2,3-triazole], the MIC in assay [5] is above 64 µg/mL. Further, the EC50 in assay [6] was 260 nM.
`Cc1ncc([N+](=O)[O-])n1CCn1cc(CN(C)Cc2ccccc2)nn1` [Compound 4m, 1-(2-(2-methyl-5-nitro-1H-imidazol-1-yl)ethyl)-4-(N-benzyl, N-methylaminomethyl)-1H-1,2,3-triazole]: the results for the minimal inhibitory concentration (MIC) in assay [1], in assay [2] and in assay [4] were 4 µg/mL (≈ 11.3 µM), 2 µg/mL (≈ 5.63 µM) and 16 µg/mL (≈ 45 µM), respectively. For the same compound, in assay [6], the 50% effective concentration (EC50) is 300 nM.
Consider `Cc1ncc([N+](=O)[O-])n1CCn1cc(Cn2cccn2)nn1` [Compound 4g, 1-(2-(2-methyl-5-nitro-1H-imidazol-1-yl)ethyl)-4-((1H-pyrazol-1-yl)methyl)-1H-1,2,3-triazole], for which the MIC in assay [1] was 2 to 4 µg/mL (≈ 6.62 to 13.2 µM); in assay [2] it was 2 µg/mL (≈ 6.62 µM); in assay [3] it was 16 to 32 µg/mL (≈ 52.9 to 106 µM); in assay [4], 16 to 32 µg/mL (≈ 52.9 to 106 µM).
With `Cc1ncc([N+](=O)[O-])n1CCn1cc(C(=O)O)nn1` [Compound 4s, 1-(2-(2-methyl-5-nitro-1H-imidazol-1-yl)ethyl)-4-(carboxy)-1H-1,2,3-triazole], the minimum inhibitory concentration (MIC) in assay [1], in assay [2], in assay [3] and in assay [4] was above 64 µg/mL throughout.
On to `Cc1ncc([N+](=O)[O-])n1CCn1cc(CO)nn1` [Compound 4q, 1-(2-(2-methyl-5-nitro-1H-imidazol-1-yl)ethyl)-4-(hydroxymethyl)-1H-1,2,3-triazole], for which the minimal inhibitory concentration (MIC) in assay [5] is above 64 µg/mL.
For the compound `Cc1ncc([N+](=O)[O-])n1CCn1cc(-c2ccccn2)nn1` [Compound 4h, 1-(2-(2-methyl-5-nitro-1H-imidazol-1-yl)ethyl)-4-(2-pyridinyl)-1H-1,2,3-triazole.xTFA], the MIC in assay [1] was 2 µg/mL; in assay [2], 1 µg/mL; in assay [3] it was 32 µg/mL; in assay [4] it was 16 µg/mL. Moreover, the EC50 in assay [6] is 560 nM.
For `Cc1ncc([N+](=O)[O-])n1CCn1cc(Cc2ccccc2)nn1` [Compound 4k, 1-(2-(2-methyl-5-nitro-1H-imidazol-1-yl)ethyl)-4-benzyl-1H-1,2,3-triazole], the concentration giving a half-maximal response (EC50) in assay [6] was 710 nM.
